In PubChem BioAssay AID210 (DTP/NCI, 2004):
Values joined by “and” are separate entries in the source; they are usually repeats but may differ in a detail not shown here. Equal values may be shown once. Toxic doses and inconclusive results are not listed.

Test system: CD2F1 mice, ip Colon 26 adenocarcinoma, median survival T/C
Assay: NCI In Vivo Anticancer Drug Screen. Data for tumor model Colon 26 Adenocarcinoma (intraperitoneal) in CD2F1 (CDF1) mice
Details: endpoint: median survival time, higher = longer survival
Method: The antitumor activity of compounds was measured in mice bearing transplantable tumors. Survival or tumor size were measured and the results are expressed as the measurement made in the treated group (T) divided by the measurement made in the vehicle treated control group (C). The tumor model used in this assay is Colon 26 Adenocarcinoma (intraperitoneal) in CD2F1 (CDF1) mice

[1] = dose: 12.5 mg/kg/injection, schedule: Q04DX003 (ip), vehicle: saline with Tween-80
[2] = dose: 12.5 mg/kg/injection, schedule: Q04DX003 (ip), vehicle: Klucel (hydroxypropylcellulose) (HPC)
[3] = dose: 25.0 mg/kg/injection, schedule: Q04DX003 (ip), vehicle: Klucel (hydroxypropylcellulose) (HPC)
[4] = dose: 100.0 mg/kg/injection, schedule: Q04DX003 (ip), vehicle: Klucel (hydroxypropylcellulose) (HPC)
[5] = dose: 25.0 mg/kg/injection, schedule: Q04DX003 (ip), vehicle: saline with Tween-80
[6] = dose: 50.0 mg/kg/injection, schedule: Q04DX003 (ip), vehicle: saline with Tween-80
[7] = dose: 100.0 mg/kg/injection, schedule: Q04DX003 (ip), vehicle: saline with Tween-80
[8] = dose: 200.0 mg/kg/injection, schedule: Q04DX003 (ip), vehicle: saline with Tween-80
[9] = dose: 50.0 mg/kg/injection, schedule: Q04DX003 (ip), vehicle: Klucel (hydroxypropylcellulose) (HPC)
[10] = dose: 200.0 mg/kg/injection, schedule: Q04DX003 (ip), vehicle: Klucel (hydroxypropylcellulose) (HPC)
[11] = dose: 0.5 mg/kg/injection, schedule: Q04DX003 (ip), vehicle: saline
[12] = dose: 1.0 mg/kg/injection, schedule: Q04DX003 (ip), vehicle: saline
[13] = dose: 2.0 mg/kg/injection, schedule: Q04DX003 (ip), vehicle: saline

CC[N+](CC)(CC)CC
T/C (dose: 1.56 mg/kg/injection, schedule: Q04DX003 (ip), vehicle: saline with Tween-80): 114 % of control | T/C (dose: 3.12 mg/kg/injection, schedule: Q04DX003 (ip), vehicle: saline with Tween-80): 107 % of control and 113 % of control | T/C (dose: 6.25 mg/kg/injection, schedule: Q04DX003 (ip), vehicle: saline with Tween-80): 111 % of control | T/C [1]: 175 % of control | T/C (dose: 12.5 mg/kg/injection, schedule: Q04DX003 (oral), vehicle: saline with Tween-80): 109 % of control | T/C (dose: 25.0 mg/kg/injection, schedule: Q04DX003 (oral), vehicle: saline with Tween-80): 105 % of control | T/C (dose: 50.0 mg/kg/injection, schedule: Q04DX003 (oral), vehicle: saline with Tween-80): 104 % of control | T/C (dose: 100.0 mg/kg/injection, schedule: Q04DX003 (oral), vehicle: saline with Tween-80): 94 % of control

CCCC(=O)OCc1cc(=O)n(C)c2c3c4c(cc12)c(C)cc(=O)n4CO3
T/C (dose: 6.25 mg/kg/injection, schedule: Q04DX003 (ip), vehicle: Klucel (hydroxypropylcellulose) (HPC)): 98 % of control | T/C [2]: 104 % of control | T/C [3]: 123 % of control | T/C [4]: 152 % of control

CCOC(=O)c1ccc(NC(=O)Nc2nccs2)cc1
T/C (dose: 12.5 mg/kg/injection, schedule: Q04DX002 (ip), vehicle: saline with Tween-80): 97 % of control | T/C (dose: 25.0 mg/kg/injection, schedule: Q04DX002 (ip), vehicle: saline with Tween-80): 105 % of control | T/C (dose: 50.0 mg/kg/injection, schedule: Q04DX002 (ip), vehicle: saline with Tween-80): 95 % of control | T/C (dose: 100.0 mg/kg/injection, schedule: Q04DX002 (ip), vehicle: saline with Tween-80): 106 % of control | T/C (dose: 200.0 mg/kg/injection, schedule: Q04DX002 (ip), vehicle: saline with Tween-80): 102 % of control | T/C (dose: 400.0 mg/kg/injection, schedule: Q04DX002 (ip), vehicle: saline with Tween-80): 110 % of control

CO[C@H]1C[C@@H]2CC[C@@H](C)[C@@](O)(O2)C(=O)C(=O)N2CCCC[C@H]2C(=O)O[C@H]([C@H](C)C[C@@H]2CC[C@@H](O)[C@H](OC)C2)CC(=O)[C@H](C)C=C(C)[C@@H](O)[C@@H](OC)C(=O)[C@H](C)C[C@H](C)/C=C/C=C/C=C1C
T/C [1]: 104 % of control | T/C [5]: 118 % of control | T/C [6]: 116 % of control | T/C [7]: 105 % of control | T/C [8]: 96 % of control

O=S(=O)(O)O
T/C (dose: 30.0 mg/kg/injection, schedule: Q01DX009 (ip), vehicle: saline with Tween-80): 100 % of control | T/C (dose: 44.0 mg/kg/injection, schedule: Q01DX009 (ip), vehicle: saline with Tween-80): 95 % of control | T/C (dose: 67.0 mg/kg/injection, schedule: Q01DX009 (ip), vehicle: saline with Tween-80): 101 % of control

COc1cccc2c1C(=O)c1c(O)c3c(c(O)c1C2=O)C[C@@](O)(/C(CO)=N/NC(=O)c1ccc(Cl)c(Cl)c1)C[C@@H]3OC1CC(N)C(O)C(C)O1 (stereo partly specified)
T/C (dose: 16.0 mg/kg/injection, schedule: Q07DX002 (iv), vehicle: saline): 92 % of control | T/C (dose: 24.0 mg/kg/injection, schedule: Q07DX002 (iv), vehicle: saline): 109 % of control | T/C (dose: 36.0 mg/kg/injection, schedule: Q07DX002 (iv), vehicle: saline): 103 % of control

O=C1c2ccccc2C(=O)c2c(NCCNCCO)ccc(O)c21
T/C (dose: 1.88 mg/kg/injection, schedule: Q01DX009 (ip), vehicle: acid diluted with saline): 162 % of control | T/C (dose: 2.0 mg/kg/injection, schedule: Q01DX009 (ip), vehicle: acid diluted with saline): 152 % of control | T/C (dose: 3.75 mg/kg/injection, schedule: Q01DX009 (ip), vehicle: acid diluted with saline): 177 % of control | T/C (dose: 4.0 mg/kg/injection, schedule: Q01DX009 (ip), vehicle: acid diluted with saline): 212 % of control | T/C (dose: 7.5 mg/kg/injection, schedule: Q01DX009 (ip), vehicle: acid diluted with saline): 196 % of control | T/C (dose: 8.0 mg/kg/injection, schedule: Q01DX009 (ip), vehicle: acid diluted with saline): 245 % of control | T/C (dose: 15.0 mg/kg/injection, schedule: Q01DX009 (ip), vehicle: acid diluted with saline): 182 % of control | T/C (dose: 16.0 mg/kg/injection, schedule: Q01DX009 (ip), vehicle: acid diluted with saline): 263 % of control

CN(Cc1cnc2nc(N)nc(N)c2n1)c1c(Cl)cc(C(=O)NC(CCC(=O)O)C(=O)O)cc1Cl (stereo unspecified)
T/C [2]: 105 % of control | T/C [3]: 102 % of control | T/C [9]: 104 % of control | T/C [4]: 104 % of control | T/C [10]: 118 % of control

Cc1ccc(NC(=O)Oc2ccc(Br)cc2Br)c([N+](=O)[O-])c1
T/C [1]: 97 % of control | T/C [5]: 100 % of control | T/C [6]: 100 % of control | T/C [7]: 107 % of control | T/C [8]: 117 % of control | T/C (dose: 400.0 mg/kg/injection, schedule: Q04DX003 (ip), vehicle: saline with Tween-80): 123 % of control

CC1CC(C)CC(C)C(O)/C(C#N)=C/C=C/CC(C2CCCC2C(=O)O)OC(=O)CC(O)C(C)C1 (stereo unspecified)
T/C [11]: 103 % of control | T/C [12]: 105 % of control | T/C [13]: 100 % of control

Nc1nncs1
T/C (dose: 50.0 mg/kg/injection, schedule: Q01DX005 (ip), vehicle: saline): 112 % of control | T/C (dose: 50.0 mg/kg/injection, schedule: Q04DX003 (ip), vehicle: saline): 119 % of control | T/C (dose: 100.0 mg/kg/injection, schedule: Q01DX005 (ip), vehicle: saline): 120 % of control

COc1ccc(CC2C(=O)NC(C)C(=O)N(C)C3Cc4ccc(cc4)Oc4cc(ccc4O)CC(C(=O)NC(C)C(=O)NC(C)C(=O)N2C)N(C)C3=O)cc1 (stereo unspecified)
T/C [11]: 97 % of control | T/C [12]: 98 % of control | T/C [13]: 87 % of control | T/C (dose: 2.59 mg/kg/injection, schedule: Q04DX003 (ip), vehicle: other): 99 % of control | T/C (dose: 4.32 mg/kg/injection, schedule: Q04DX003 (ip), vehicle: other): 103 % of control | T/C (dose: 7.2 mg/kg/injection, schedule: Q04DX003 (ip), vehicle: other): 112 % of control | T/C (dose: 12.0 mg/kg/injection, schedule: Q04DX003 (ip), vehicle: other): 113 % of control

Clc1ccc(C2SC=Cc3ccccc32)cc1 (stereo unspecified)
T/C (dose: 3.12 mg/kg/injection, schedule: Q04DX002 (ip), vehicle: Klucel (hydroxypropylcellulose) (HPC)): 105 % of control | T/C [3]: 99 % of control | T/C [9]: 103 % of control | T/C (dose: 62.5 mg/kg/injection, schedule: Q04DX002 (ip), vehicle: Klucel (hydroxypropylcellulose) (HPC)): 100 % of control | T/C [4]: 97 % of control | T/C (dose: 125.0 mg/kg/injection, schedule: Q04DX002 (ip), vehicle: Klucel (hydroxypropylcellulose) (HPC)): 98 % of control | T/C [10]: 105 % of control | T/C (dose: 250.0 mg/kg/injection, schedule: Q04DX002 (ip), vehicle: Klucel (hydroxypropylcellulose) (HPC)): 96 % of control | T/C (dose: 500.0 mg/kg/injection, schedule: Q04DX002 (ip), vehicle: Klucel (hydroxypropylcellulose) (HPC)): 100 % of control

CN(C)CCNc1cccc2c1C(=O)c1cccc(NCCN(C)C)c1C2=O
T/C (dose: 1.88 mg/kg/injection, schedule: Q01DX009 (ip), vehicle: saline): 103 % of control | T/C (dose: 3.75 mg/kg/injection, schedule: Q01DX009 (ip), vehicle: saline): 108 % of control | T/C (dose: 7.5 mg/kg/injection, schedule: Q01DX009 (ip), vehicle: saline): 99 % of control | T/C (dose: 15.0 mg/kg/injection, schedule: Q01DX009 (ip), vehicle: saline): 113 % of control

Cc1ccc(S(=O)(=O)N/N=C/C(=O)O)cc1
T/C [1]: 174 % of control | T/C [5]: 177 % of control | T/C [6]: 212 % of control | T/C [7]: 196 % of control | T/C [8]: 193 % of control

COc1cccc2c1C(=O)c1c(O)c3c(c(O)c1C2=O)C[C@@](O)(C(=O)CO)C[C@@H]3OC1CC([N+](C)(C)C)C(O)C(C)O1 (stereo partly specified)
T/C (dose: 5.4 mg/kg/injection, schedule: Q04DX003 (ip), vehicle: water): 102 % of control | T/C (dose: 9.0 mg/kg/injection, schedule: Q04DX003 (ip), vehicle: water): 103 % of control | T/C (dose: 15.0 mg/kg/injection, schedule: Q04DX003 (ip), vehicle: water): 96 % of control | T/C (dose: 25.0 mg/kg/injection, schedule: Q04DX003 (ip), vehicle: water): 115 % of control

CC1C(=O)CCC2(C)C1CCC1CC3CC12CCC3(O)CO (stereo unspecified)
T/C (dose: 25.0 mg/kg/injection, schedule: Q04DX002 (ip), vehicle: saline + alcohol): 100 % of control | T/C (dose: 50.0 mg/kg/injection, schedule: Q04DX002 (ip), vehicle: saline + alcohol): 106 % of control | T/C (dose: 100.0 mg/kg/injection, schedule: Q04DX002 (ip), vehicle: saline + alcohol): 92 % of control
